# In patent publication US9938261B2, “Heterocyclic compounds and methods of use thereof” (AMBIT BIOSCIENCES CORPORATION, priority 2011, dated 2018):
# Like-named read-outs stand apart in the source and are kept apart here.
# Key:
# [1] = target: T1, FLT3 (Homo sapiens, UniProt P36888); assay: Competition binding assay, FLT3 Kd
# T1 construct: made in house
# T1 sequence (P36888 27-993): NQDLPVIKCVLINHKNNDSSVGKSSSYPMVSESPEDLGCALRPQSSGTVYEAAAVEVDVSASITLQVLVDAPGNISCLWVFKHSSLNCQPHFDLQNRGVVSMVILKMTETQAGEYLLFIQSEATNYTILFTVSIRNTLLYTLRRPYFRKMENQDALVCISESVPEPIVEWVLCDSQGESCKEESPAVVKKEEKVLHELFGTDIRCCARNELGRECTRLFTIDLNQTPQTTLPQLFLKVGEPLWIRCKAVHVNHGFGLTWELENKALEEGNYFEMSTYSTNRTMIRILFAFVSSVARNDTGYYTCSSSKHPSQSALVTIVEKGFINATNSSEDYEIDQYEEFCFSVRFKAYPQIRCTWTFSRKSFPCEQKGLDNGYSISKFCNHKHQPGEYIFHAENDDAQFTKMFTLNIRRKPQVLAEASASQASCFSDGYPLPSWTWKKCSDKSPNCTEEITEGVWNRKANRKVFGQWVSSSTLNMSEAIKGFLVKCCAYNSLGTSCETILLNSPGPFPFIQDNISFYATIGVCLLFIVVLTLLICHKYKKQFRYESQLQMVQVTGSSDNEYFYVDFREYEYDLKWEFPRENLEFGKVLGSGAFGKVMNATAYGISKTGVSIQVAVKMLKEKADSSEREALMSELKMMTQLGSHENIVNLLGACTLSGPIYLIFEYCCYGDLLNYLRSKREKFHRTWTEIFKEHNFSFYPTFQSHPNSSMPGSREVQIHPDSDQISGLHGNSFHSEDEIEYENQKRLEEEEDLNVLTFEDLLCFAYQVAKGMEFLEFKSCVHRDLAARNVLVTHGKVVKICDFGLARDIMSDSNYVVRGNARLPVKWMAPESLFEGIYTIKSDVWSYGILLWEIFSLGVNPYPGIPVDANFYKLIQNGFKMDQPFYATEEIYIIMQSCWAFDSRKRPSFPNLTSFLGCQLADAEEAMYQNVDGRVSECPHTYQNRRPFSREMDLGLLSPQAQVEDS
# Method: (§1) Competition binding assays used herein were developed, validated and performed as described in Fabian et al., Nature Biotechnology 2005, 23, 329-336. Kinases were produced as fusions to T7 phage (See, Fabian et al. or WO04/015142) or alternatively, the kinases were expressed in HEK-293 cells and subsequently tagged with DNA for PCR detection (See, WO08/005310). For the binding assays, streptavidin-coated magnetic beads were treated with biotinylated affinity ligands for 30 min at room temperature to generate affinity resins. The liganded beads were blocked with excess biotin and washed with blocking buffer (SeaBlock (Pierce), 1% BSA, 0.05% Tween 20, 1 mM DTT) to remove unbound ligand and to reduce non-specific binding. Binding reactions were assembled by combining kinase, liganded affinity beads, and test compounds in 1× binding buffer (20% SeaBlock, 0.17×PBS, 0.05% Tween 20, 6 mM DTT). Test compounds were prepared as 100× stocks in DMSO and diluted into the aqueous environment. Kds were determined using an eleven point threefold serial dilutions. DMSO or control compounds were was added to control assays lacking a test compound. Primary screen assays were performed in polypropylene 384-well plates in a final volume of 20-40 μL, while Kd determinations were performed in polystyrene 96-well plates in a final volume of 135 μL. The assay plates were incubated at room temperature with shaking for 1 hour to allow the binding reactions to reach equilibrium, and the affinity beads were washed extensively with wash buffer (1×PBS, 0.05% Tween 20) to remove unbound protein. The beads were then resuspended in elution buffer (1×PBS, 0.05% Tween […] non-biotinylated affinity ligand) and incubated at room temperature with shaking for 30 min. The kinase concentration in the eluates was measured by quantitative PCR.
# [2] = target: T2, KIT (Homo sapiens, UniProt P10721); assay: Competition binding assay, KIT Kd
# T2 construct: made in house
# T2 sequence (P10721 26-976): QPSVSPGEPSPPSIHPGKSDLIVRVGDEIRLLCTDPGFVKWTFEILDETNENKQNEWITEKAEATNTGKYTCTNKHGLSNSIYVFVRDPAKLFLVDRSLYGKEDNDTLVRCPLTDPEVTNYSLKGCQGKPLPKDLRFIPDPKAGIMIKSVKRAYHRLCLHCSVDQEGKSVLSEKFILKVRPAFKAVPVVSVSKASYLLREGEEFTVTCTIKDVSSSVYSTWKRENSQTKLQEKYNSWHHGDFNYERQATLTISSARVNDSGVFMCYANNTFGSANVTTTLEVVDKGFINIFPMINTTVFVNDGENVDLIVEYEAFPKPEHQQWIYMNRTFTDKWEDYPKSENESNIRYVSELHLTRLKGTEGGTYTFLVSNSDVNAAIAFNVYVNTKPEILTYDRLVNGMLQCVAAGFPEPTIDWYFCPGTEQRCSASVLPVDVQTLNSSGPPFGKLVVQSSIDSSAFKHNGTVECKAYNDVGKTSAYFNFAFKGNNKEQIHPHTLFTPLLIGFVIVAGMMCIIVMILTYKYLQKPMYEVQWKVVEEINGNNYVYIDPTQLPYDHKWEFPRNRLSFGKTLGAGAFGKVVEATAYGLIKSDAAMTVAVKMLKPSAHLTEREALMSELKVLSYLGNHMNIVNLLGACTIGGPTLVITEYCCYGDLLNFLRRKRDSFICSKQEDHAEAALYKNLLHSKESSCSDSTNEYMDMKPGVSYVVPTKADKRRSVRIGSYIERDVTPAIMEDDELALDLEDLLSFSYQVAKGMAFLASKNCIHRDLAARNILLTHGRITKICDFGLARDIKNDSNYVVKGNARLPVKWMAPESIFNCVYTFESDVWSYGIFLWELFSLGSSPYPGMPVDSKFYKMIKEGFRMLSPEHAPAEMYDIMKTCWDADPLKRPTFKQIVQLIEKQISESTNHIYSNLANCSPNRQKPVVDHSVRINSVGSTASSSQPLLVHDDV
# Method: as §1
# [3] = target: T3, PDGFRβ (Homo sapiens, UniProt P09619); assay: Competition binding assay, PDGFRβ Kd
# T3 construct: made in house
# T3 sequence (P09619 33-1106): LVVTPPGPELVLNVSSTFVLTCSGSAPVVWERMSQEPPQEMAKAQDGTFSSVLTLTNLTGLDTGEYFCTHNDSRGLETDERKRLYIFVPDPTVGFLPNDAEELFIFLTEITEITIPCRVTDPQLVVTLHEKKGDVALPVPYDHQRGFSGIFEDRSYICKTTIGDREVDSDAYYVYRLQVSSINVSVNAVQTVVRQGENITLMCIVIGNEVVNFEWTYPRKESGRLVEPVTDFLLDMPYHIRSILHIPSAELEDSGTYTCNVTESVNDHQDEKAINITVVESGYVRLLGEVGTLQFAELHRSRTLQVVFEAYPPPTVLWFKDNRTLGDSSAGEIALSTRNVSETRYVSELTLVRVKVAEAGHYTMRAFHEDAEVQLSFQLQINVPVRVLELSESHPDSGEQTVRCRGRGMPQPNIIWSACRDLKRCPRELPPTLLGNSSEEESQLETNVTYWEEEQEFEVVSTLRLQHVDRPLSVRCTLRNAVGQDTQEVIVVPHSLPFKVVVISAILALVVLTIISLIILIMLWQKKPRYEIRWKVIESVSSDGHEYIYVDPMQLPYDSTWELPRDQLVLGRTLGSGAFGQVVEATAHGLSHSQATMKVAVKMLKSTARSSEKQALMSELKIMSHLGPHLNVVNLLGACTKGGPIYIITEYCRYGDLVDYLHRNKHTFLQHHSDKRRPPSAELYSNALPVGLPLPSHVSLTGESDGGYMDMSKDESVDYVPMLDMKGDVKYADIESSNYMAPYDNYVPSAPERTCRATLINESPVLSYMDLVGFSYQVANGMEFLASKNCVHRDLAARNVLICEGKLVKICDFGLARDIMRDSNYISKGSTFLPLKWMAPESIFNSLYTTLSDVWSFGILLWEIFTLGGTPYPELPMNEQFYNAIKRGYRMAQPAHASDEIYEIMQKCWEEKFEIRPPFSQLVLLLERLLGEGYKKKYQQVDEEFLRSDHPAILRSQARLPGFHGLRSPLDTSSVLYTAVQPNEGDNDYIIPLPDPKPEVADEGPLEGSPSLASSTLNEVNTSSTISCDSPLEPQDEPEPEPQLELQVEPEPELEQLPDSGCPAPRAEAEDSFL
# Method: as §1
# [4] = system: M-NFS-60 cells; assay: M-NFS-60 cell proliferation assay (Alamar Blue); format: cell-based, mouse; settings: Mus musculus, read-out: CSF1R M-NFS-60 CTB:IC50
# Method: The compounds disclosed herein were tested in an M-NFS-60 cell proliferation assay to determine their cellular potency against CSF1R. M-NFS-60s are mouse monocytic cells that depend on the binding of the ligand M-CSF to its receptor, CSF1R, to proliferate. Inhibition of CSF1R kinase activity will cause reduced growth and/or cell death. This assay assesses the potency of compounds as CSF1R inhibitors by measuring the reduction of Alamar Blue reagent by viable cells.
# On day one of the experiment, M-NFS-60 cells were maintained in RPMI complete medium (Omega Scientific) plus 10% FBS supplemented with 20 ng/mL of M-CSF (R&D Systems). 96-well TC-treated, flat bottom plates were seeded at 10,000 cell/well at a volume of 100 μL per well. The cells were cultured overnight at 37° C. under 5% CO2.
# On day two, compounds were added to the cells at 9 different concentrations, with half-log intervals alongside a control reference compound serving as a positive control. Final DMSO concentration was kept at 0.5% for a final volume of 200 μL. The compounds were allowed to incubate with the cells for 72 hours at 37° C. under 5% CO2.
# On day five of the experiment, 40 μl of Alamar Blue reagent was added to each well and allowed to incubate for 3 hours. Alamar Blue fluorescence was read using SoftMax Pro software at 560 nm (excitation) and 590 nm (emission). IC50s were generated as an average of duplicates and represents the concentration of test compound that achieves 50% inhibition of cellular proliferation compared to control.
# [5] = target: T4, CSF1R (Homo sapiens, UniProt P07333); assay: Competition binding assay, CSF1R Kd; set-up: made in house
# T4 sequence (P07333 20-972): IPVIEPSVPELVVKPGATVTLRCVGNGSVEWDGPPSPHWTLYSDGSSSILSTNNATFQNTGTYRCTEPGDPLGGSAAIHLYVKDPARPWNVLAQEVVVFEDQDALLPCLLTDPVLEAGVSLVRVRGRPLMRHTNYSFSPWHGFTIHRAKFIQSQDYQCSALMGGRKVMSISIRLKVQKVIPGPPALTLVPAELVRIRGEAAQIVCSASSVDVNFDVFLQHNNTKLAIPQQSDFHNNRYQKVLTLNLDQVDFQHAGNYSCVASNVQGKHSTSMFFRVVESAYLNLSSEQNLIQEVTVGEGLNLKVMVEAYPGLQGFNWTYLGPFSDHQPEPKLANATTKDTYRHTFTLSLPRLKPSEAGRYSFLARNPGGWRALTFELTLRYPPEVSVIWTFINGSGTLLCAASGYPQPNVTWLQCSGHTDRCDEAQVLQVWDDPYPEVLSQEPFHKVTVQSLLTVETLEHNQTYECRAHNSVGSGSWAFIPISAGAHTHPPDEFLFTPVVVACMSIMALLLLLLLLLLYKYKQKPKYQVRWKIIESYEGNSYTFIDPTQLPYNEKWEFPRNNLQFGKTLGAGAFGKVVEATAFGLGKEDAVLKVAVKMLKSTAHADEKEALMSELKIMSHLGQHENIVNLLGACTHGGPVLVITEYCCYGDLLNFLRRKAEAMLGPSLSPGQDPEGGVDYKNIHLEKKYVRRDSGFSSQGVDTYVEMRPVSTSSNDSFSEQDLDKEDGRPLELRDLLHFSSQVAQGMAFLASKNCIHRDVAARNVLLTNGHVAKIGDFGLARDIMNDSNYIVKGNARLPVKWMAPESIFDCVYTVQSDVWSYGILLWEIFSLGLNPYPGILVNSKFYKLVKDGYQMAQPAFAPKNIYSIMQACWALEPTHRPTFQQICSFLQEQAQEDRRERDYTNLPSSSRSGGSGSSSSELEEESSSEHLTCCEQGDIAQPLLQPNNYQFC
# Method: as §1
# [6] = target: T4, CSF1R; assay: HEK293 CSF1R phosphorylation MSD assay; format: cell-based; set-up: expressed in transfected cells; host or cells: HEK293; settings: read-out: HEK293 pCSF1R M-CSF MSD:IC50
# Method: The compounds disclosed herein were tested in a CSF1R phosphorylation assay to determine their cellular potency against CSF1R. A HEK293 cell line expressing CSF1R fused to FK506 binding protein (FKBP) as a molecular tag was generated. Inhibition of CSF1R kinase activity will prevent ligand-stimulated autophosphorylation of the CSF1R-FKBP in intact cells. Subsequent cell lysates are assayed in a sandwich ELISA employing the electrochemiluminescent Meso Scale Discovery (MSD) technology for the presence of the phosphorylated (p)CSF1R-FKBP. This assay determines the potency of compounds as CSF1R inhibitors by measuring the reduction in the amount of pCSF1R with increasing doses of compounds added to the cells prior to M-CSF stimulation.
# On day one of the experiment, HEK293-CSF1R-FKPB cells, maintained in DMEM, with L-glutamine (Mediatech), 10% FBS, and 100 units/mL Penicillin/Streptomycin, were seeded at 50,000 cell/well in a volume of 100 μL per well in 96-well Cell Bind plates (Costar). The cells were cultured overnight at 37° C. under 5% CO2. To prepare the plates used in the MSD assay, a 330 nM biotin-FK506 (in TBS pH 7.2) solution was added at 30 μL per well to streptavidin-coated 96-well plates (MSD), and incubated overnight at room temperature, shaking at 500 rpm on an orbital shaker.
# On day two, compounds diluted in DMSO were added to the cells in duplicate plates at 9 different concentrations with half-log intervals, plus DMSO only control, alongside a reference compound serving as a positive control. Final DMSO concentration was 0.5% in a volume of 200 μL per well. The compounds were allowed to incubate with the cells for 2 h at 37° C. under 5% CO2. At the end of the incubation, human M-CSF (R&D Systems) was added for 5 min to a final concentration of 50 ng/mL to stimulate CSF1R phosphorylation. Cells were lysed for 20 min, and the lysates were applied to the washed, FK506-coated MSD plates, and incubated overnight at 4° C. shaking at 500 rpm.
# On day three, the MSD plates were washed, and the captured CSF1R-FKBP was assayed sequentially for phosphorylation using mouse anti-phosphotyrosine antibody (Millipore) and Sulfo-TAG goat anti-mouse IgG antibody (MSD), and detected on a Sector Imager 6000 instrument (MSD).
# A single IC50 value for each compound was determined by averaging the IC50s of the duplicates calculated using Igor Pro 6 software, and represents the compound concentration that achieves a 50% inhibition of ligand-induced CSF1R phosphorylation compared to DMSO control.
# [7] = 72 hours incubation, M-CSF 20 ng/mL
# [8] = 2 h compound, human M-CSF 50 ng/mL for 5 min
Structure (SMILES),Kd [1] [nM],Kd [2] [nM],Kd [3] [nM],"IC50 [4, 7] [nM]",Kd [5] [nM],"IC50 [6, 8] [nM]",Kd ([1]; competition binding) [nM],Kd ([2]; competition binding) [nM],Kd ([3]; competition binding) [nM],IC50 ([4]; M-NFS-60 cell proliferation) [nM],Kd ([5]; competition binding) [nM],"IC50 ([6]; HEK293 cells, M-CSF stimulated CSF1R phosphorylation, MSD) [nM]"
"O[C@@H]1CCCC[C@H]1Nc1nc2ccc(Cn3cnc4ccc(Br)nc43)cc2s1 [Example 78, (1R,2R)-2-((6-((5-bromo-3H-imidazo[4,5-b]pyridin-3-yl)methyl)benzo[d]thiazol-2-yl)amino)cyclohexanol]",≤ 200,≤ 100,≤ 50,≤ 50,5 to 20,≤ 50,,,,,,
"O[C@@H]1CCCC[C@H]1Nc1nc2ccc(Cn3cnc4cc(Br)cnc43)cc2s1 [Example 29, (1R,2R)-2-((6-((6-bromo-3H-imidazo[4,5-b]pyridin-3-yl)methyl)benzo[d]thiazol-2-yl)amino)cyclohexanol]",200 to 1000,≤ 100,50 to 500,50 to 400,5 to 20,≤ 50,,,,,,
"Cn1nnc(-c2cnc3c(c2)ncn3Cc2ccc3nc(N[C@@H]4CCCC[C@H]4O)sc3c2)n1 [Example 94, (1R,2R)-2-((6-((6-(2-methyl-2H-tetrazol-5-yl)-3H-imidazo[4,5-b]pyridin-3-yl)methyl)benzo[d]thiazol-2-yl)amino)cyclohexanol]",200 to 1000,100 to 500,50 to 500,≤ 50,5 to 20,≤ 50,,,,,,
"O[C@@H]1CCCC[C@H]1Nc1nc2ccc(Cc3c[nH]c4ncccc34)cc2s1 [Example 17, (1R,2R)-2-((6-((1H-pyrrolo[2,3-b]pyridin-3-yl)methyl)benzo[d]thiazol-2-yl)amino)cyclohexanol]",200 to 1000,> 2000,50 to 500,400 to 1500,5 to 20,200 to 500,,,,,,
"COC(=O)c1cnc2c(c1)ncn2Cc1ccc2nc(N[C@@H]3CCCC[C@H]3O)sc2c1 [Example 79, methyl 3-((2-(((1R,2R)-2-hydroxycyclohexyl)amino)benzo[d]thiazol-6-yl)methyl)-3H-imidazo[4,5-b]pyridine-6-carboxylate]",200 to 1000,≤ 100,≤ 50,≤ 50,5 to 20,≤ 50,,,,,,
"OCCOc1ccn2c(Cc3ccc4nc(N[C@@H]5CCCC[C@H]5O)sc4c3)cnc2c1 [Example 135, (1R,2R)-2-((6-((7-(2-hydroxyethoxy)imidazo[1,2-a]pyridin-3-yl)methyl)benzo[d]thiazol-2-yl)amino)cyclohexanol]",,,,,,,> 5000,500 to 2000,500 to 2000,50 to 400,5 to 20,50 to 200
"O[C@@H]1CCCC[C@H]1Nc1nc2ccc(Cn3cnc4ccccc43)cc2s1 [Example 6, (1R,2R)-2-((6-((1H-benzo[d]imidazol-1-yl)methyl)benzo[d]thiazol-2-yl)amino)cyclohexanol]",≤ 200,100 to 500,50 to 500,50 to 400,5 to 20,50 to 200,,,,,,
"O[C@@H]1CCCC[C@H]1Nc1nc2ccc(Cn3cnc4ccncc43)cc2s1 [Example 71, (1R,2R)-2-((6-((3H-imidazo[4,5-c]pyridin-3-yl)methyl)benzo[d]thiazol-2-yl)amino)cyclohexanol]",> 5000,> 2000,500 to 2000,400 to 1500,5 to 20,200 to 500,,,,,,
"COc1ccc2ncn(Cc3ccc4nc(N[C@@H]5CCCC[C@H]5O)sc4c3)c2n1 [Example 23, (1R,2R)-2-((6-((5-methoxy-3H-imidazo[4,5-b]pyridin-3-yl)methyl)benzo[d]thiazol-2-yl)amino)cyclohexanol]",≤ 200,≤ 100,50 to 500,50 to 400,≤ 5,≤ 50,,,,,,
"COc1cc2ncn(Cc3ccc4nc(NCCN5CCOCC5)sc4c3)c2cc1OC [Example 14, 6-((5,6-dimethoxy-1H-benzo[d]imidazol-1-yl)methyl)-N-(2-morpholinoethyl)benzo[d]thiazol-2-amine]",1000 to 5000,> 2000,500 to 2000,> 1500,> 50,> 500,,,,,,
